Where two headings read alike, the source gives them in different places.
What was measured:
[1] = target: T1, endoplasmic reticulum Ca2+-ATPase (SERCA), SR vesicles from rabbit skeletal muscle (Oryctolagus cuniculus, UniProt P04191); assay: SERCA inhibition: 45Ca2+ uptake to sarcoplasmic reticulum vesicles; type: biochemical
T1 construct: sarcoplasmic reticulum (SR) vesicles prepared from rabbit skeletal muscle; from tissue; host or cells: rabbit skeletal muscle sarcoplasmic reticulum vesicles
Experimental: The primary amine-containing thapsigargin analogs of the invention have endoplasmic reticulum Ca^2+-ATPase inhibitory activity. This activity is measured as the concentration of analog needed to inhibit 50% of this ATPase (IC50). The IC50 of the analogs of the invention is desirably at most 500 nM, preferably at most 200 nM, and more preferably at most 50 nM of analog.
The inhibitory potency of thapsigargin and its analogs was determined as the concentration required to produce 50% inhibition (i.e. IC50) of ^45Ca^2+ uptake to sarcoplasmic reticulum (SR) vesicles prepared from rabbit skeletal muscle by the method of De Meis and Hasselbach (J. Biol. Chem., 246: 4759-4763, 1971). The ^45Ca^2+ uptake assay was as described previously (Christensen, et al., FEBS, 335: 345-348, 1993), with the following modifications: 5 μg/ml of SR protein was incubated at 25EC and free Ca^2+ adjusted to 100 nM using 4 min. uptake time. Under these conditions, Ca^2+ could proceed linearly with time for at least 8 minutes. Measurements of Ca^2+ within TSU cells was determined as described previously (Lin et al., The Prostate, 33:201-207, 1997).
(§1) The IC50 results are mean (n=3)±standard error. The LC50 results are mean (n=5)±standard error. The entry “ND” stands for “not determined”. Clonogenic survival not determined above 10 μM for dBTG. Analogs with −boc have a t-butoxycarbonyl (boc) protected amino group.

[2] = Clonogenic survival of TSU-Pr1 cells after 72 hours exposure to TG analogs; type: cell-based, human; conditions: human; TSU-Pr1, 72 hours exposure; mean (n=5) ± standard error; read-out: LC50 (concentration needed to kill 50% of clonogenic cells)
Experimental: The primary amine-containing thapsigargin analogs of the invention have non-specific toxicity toward cells. This toxicity is measured as the concentration of analog needed to kill 50% of clonogenic cells (LC50). The LC50 of the analogs of the invention is desirably at most 20 μM, preferably at most 5 μM, and more preferably at most 500 nM of analog.
Percentage clonogenic survival of TSU-Pr1 (2×10^5 cells) following 72 hours of exposure to varying concentrations of TG analogs was performed as described in Martikainen et al. Cancer Res., 51, 4693-4700 (1991).
as §1
The androgen responsive PSA-producing LNCaP and androgen independent PSA non-producing TSU-Pr1 are human prostate cancer lines were obtained from ATCC (Rockville, Md.) and maintained by serial passage in RPMI 1640 media containing 10% fetal calf serum with 100 units/ml penicillin G, and 100 units/ml streptomycin sulfate (antibiotics from M.A. Bioproducts, Walkerville, Md.) as standard media in 5% CO2/95% air at 37° C. The origins and characteristics of the LNCaP and TSU-Pr1 cell lines are described in Horoszewicz, et al., Cancer Res., 43:1809-1818, (1980)and Iizumi, et al., J. Urol, 137: 1304-1306, (1987).

[3] = mean (n=3) ± standard error, 5 μg/ml SR protein, free Ca2+ 100 nM, 4 min uptake, read-out: IC50 (50% inhibition of 45Ca2+ uptake to SR vesicles)

T1 sequence (P04191 1-994 isoform P04191-2): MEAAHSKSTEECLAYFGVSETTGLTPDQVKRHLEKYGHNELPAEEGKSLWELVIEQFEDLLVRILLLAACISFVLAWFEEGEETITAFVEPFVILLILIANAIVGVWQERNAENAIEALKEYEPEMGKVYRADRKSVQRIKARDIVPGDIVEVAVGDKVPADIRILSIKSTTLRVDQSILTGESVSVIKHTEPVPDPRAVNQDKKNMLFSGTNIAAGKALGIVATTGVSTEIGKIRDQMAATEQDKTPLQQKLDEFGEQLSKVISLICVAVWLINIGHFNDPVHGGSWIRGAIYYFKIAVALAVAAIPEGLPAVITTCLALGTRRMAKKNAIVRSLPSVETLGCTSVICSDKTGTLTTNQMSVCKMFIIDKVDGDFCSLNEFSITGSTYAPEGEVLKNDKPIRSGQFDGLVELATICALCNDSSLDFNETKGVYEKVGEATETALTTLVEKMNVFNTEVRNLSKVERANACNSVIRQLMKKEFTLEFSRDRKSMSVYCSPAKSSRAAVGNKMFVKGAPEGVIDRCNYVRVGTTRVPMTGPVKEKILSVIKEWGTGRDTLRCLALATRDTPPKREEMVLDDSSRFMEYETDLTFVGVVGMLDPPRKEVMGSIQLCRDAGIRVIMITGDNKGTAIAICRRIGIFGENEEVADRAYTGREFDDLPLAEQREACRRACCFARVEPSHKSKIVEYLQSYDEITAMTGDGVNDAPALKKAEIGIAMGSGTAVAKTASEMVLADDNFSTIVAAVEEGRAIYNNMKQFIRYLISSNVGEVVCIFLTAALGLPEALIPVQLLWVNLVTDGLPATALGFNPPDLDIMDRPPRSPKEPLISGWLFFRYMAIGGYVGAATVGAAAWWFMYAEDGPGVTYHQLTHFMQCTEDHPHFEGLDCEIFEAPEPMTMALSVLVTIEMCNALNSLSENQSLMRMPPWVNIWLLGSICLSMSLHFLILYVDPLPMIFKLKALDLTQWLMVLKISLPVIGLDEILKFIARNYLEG

SMILES	IC50 [1, 3] [nM]	CC50 [2] [nM]	IC50 [1] [nM]
C/C=C(/C)C(=O)O[C@H]1C(C)=C2[C@H]([C@@H]1OC(=O)CCCCCCC)[C@@](C)(OC(C)=O)C[C@H](OC(=O)c1ccc(N)cc1)[C@@]1(O)[C@H]2OC(=O)[C@@]1(C)O [ABT, 8-O-(4-aminobenzoyl)-8-O-debutanoylthapsigargin]	18.4 ± 0.3	4000 ± 300	
C/C=C(/C)C(=O)O[C@H]1C(C)=C2[C@H]([C@@H]1OC(=O)CCCCCCC)[C@@](C)(OC(C)=O)C[C@H](OC(=O)CCCc1ccc(NC(=O)OC(C)(C)C)cc1)[C@@]1(O)[C@H]2OC(=O)[C@@]1(C)O [ABuT-boc, 8-O-(4-[4-t-butoxycarbonylaminophenyl]butanoyl)-8-O-debutanoylthapsigargin]			14.4 ± 0.8
C/C=C(/C)C(=O)O[C@H]1C(C)=C2[C@H]([C@@H]1OC(=O)CCCCCCC)[C@@](C)(OC(C)=O)C[C@H](OC(=O)CCCCCC(=O)Nc1ccc(C)c(N)c1)[C@@]1(O)[C@H]2OC(=O)[C@@]1(C)O [PDT, 8-O-{6-(N-[3-amino-4-methylphenyl]-carboxamido)hexanoyl}-8-O-debutanoylthapsigargin]	17.7 ± 2.4	3100 ± 200	
C/C=C(/C)C(=O)O[C@H]1C(C)=C2[C@H]([C@@H]1OC(=O)CCCCCCC)[C@@](C)(OC(C)=O)C[C@H](OC(=O)CCCC(=O)Nc1ccc(C)c(N)c1)[C@@]1(O)[C@H]2OC(=O)[C@@]1(C)O [GDT, 8-O-{4-(N-[3-amino-4-methylphenyl]-carboxamido)butanoyl}-8-O-debutanoylthapsigarg in]	316 ± 23	16600 ± 400	
C/C=C(/C)C(=O)O[C@H]1C(C)=C2[C@H]([C@@H]1OC(=O)CCCCCCC)[C@@](C)(OC(C)=O)C[C@H](OC(=O)CCc1ccc(NC(=O)OC(C)(C)C)cc1)[C@@]1(O)[C@H]2OC(=O)[C@@]1(C)O [APT-boc, 8-O-(3-[4-t-butoxycarbonylaminophenyl]propionyl)-8-O-debutanoylthapsigargin]	21.2 ± 0.8	870 ± 15	
C/C=C(/C)C(=O)O[C@H]1C(C)=C2[C@H]([C@@H]1OC(=O)CCCCCCC)[C@@](C)(OC(C)=O)C[C@H](OC(=O)CCCc1ccc(N)cc1)[C@@]1(O)[C@H]2OC(=O)[C@@]1(C)O [ABuT, 8-O-(4-[4-aminophenyl]butanoyl)-8-O-debutanoylthapsigargin]	18.4 ± 1.4	225 ± 20	
C/C=C(/C)C(=O)O[C@H]1C(C)=C2[C@H]([C@@H]1OC(=O)CCCCCCC)[C@@](C)(OC(C)=O)C[C@H](OC(=O)CCC(=O)Nc1ccc(C)c(N)c1)[C@@]1(O)[C@H]2OC(=O)[C@@]1(C)O [SDT, 8-O-{3-(N-[3-amino-4-methylphenyl]-carboxamido)propanoyl}-8-O-debutanoylthapsigargin]	1280 ± 91	> 25000	
C/C=C(/C)C(=O)O[C@H]1C(C)=C2[C@H]([C@@H]1OC(=O)CCCCCCC)[C@@](C)(OC(C)=O)C[C@H](OC(=O)CCc1ccc(N)cc1)[C@@]1(O)[C@H]2OC(=O)[C@@]1(C)O [APT, 8-O-(3-[4-aminophenyl]propionyl)-8-O-debutanoylthapsigargin]	16.2 ± 0.9	275 ± 60	
C/C=C(/C)C(=O)O[C@H]1C(C)=C2[C@H]([C@@H]1OC(=O)CCCCCCC)[C@@](C)(OC(C)=O)C[C@H](OC(=O)/C=C/c1ccc(NC(=O)OC(C)(C)C)cc1)[C@@]1(O)[C@H]2OC(=O)[C@@]1(C)O [ACT-boc, 8-O-(4-t-butoxycarbonylaminocinnamoyl)-8-O-debutanoylthapsigargin]	20.3 ± 0.2	1900 ± 100	

From patent US6545131B1, “Tissue specific prodrug” (priority 1997, dated 2003)
